Assay results from ChEMBL document CHEMBL1121959, “Probes of the active site of norepinephrine N-methyltransferase: effect of hydrophobic and hydrophilic interactions on side-chain binding of amphetamine and alpha-methylbenzylamine” (J Med Chem, 1982).

Molecular target: T1, Phenylethanolamine N-methyltransferase (Bos taurus, UniProt P10938)
T1 sequence (P10938 whole entry): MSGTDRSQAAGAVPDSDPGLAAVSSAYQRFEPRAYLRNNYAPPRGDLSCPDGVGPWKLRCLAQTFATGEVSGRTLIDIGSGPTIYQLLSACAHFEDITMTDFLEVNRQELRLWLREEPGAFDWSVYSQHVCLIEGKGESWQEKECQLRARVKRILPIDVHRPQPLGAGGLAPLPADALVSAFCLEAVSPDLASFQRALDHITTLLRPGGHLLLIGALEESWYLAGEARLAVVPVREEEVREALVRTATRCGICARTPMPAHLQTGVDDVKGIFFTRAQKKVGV
Assay: Inhibitory activity against bovine adrenal norepinephrine N-methyl-transferase was determined

Structure (SMILES) | Ki
N[C@H](CO)CC1CCCCC1 | 125 µM
N[C@@H](CO)Cc1ccccc1 | 379 µM
N[C@@H](CO)CC1CCCCC1 | 33 µM
N[C@@H](CO)c1ccccc1 | 88 µM
CCC(N)Cc1ccccc1 (stereo not given) | > 1000 µM
NC(CC1CCCCC1)c1ccccc1 (stereo not given) | > 1000 µM
CCCC(N)c1ccccc1 (stereo not given) | > 1000 µM
NC(Cc1ccccc1)Cc1ccccc1 | > 1000 µM
CCCC(N)Cc1ccccc1 (stereo not given) | > 1000 µM
NC(CO)Cc1ccccc1 (racemic) | 385 µM
NC(CO)CC1CCCCC1 (racemic) | 47 µM
NC(CO)c1ccccc1 (racemic) | 1220 µM
C[C@H](N)Cc1ccccc1 [DEXTROAMPHETAMINE] | 442 µM
N[C@H](CO)Cc1ccccc1 [L-PHENYLALANINOL] | 664 µM
C[C@@H](N)Cc1ccccc1 [LEVAMFETAMINE] | 1380 µM
